Where a SMILES comes first, the peptide text is derived from it. The star is where a group is joined. Cbz = O=C(OCc1ccccc1)*
Key:
HeLa H2B-GFP cells [1] = experiment: Live cell imaging of mitotic duration and cell fate; format: cell-based, human
Method: Detailed siRNA transfection and drug treatment schemes are described in supplemental experimental procedures. HeLa H2B-GFP cells were plated in DMEM with 10% FBS at 20% confluence. […] Live cell imaging was performed at 12 minute intervals on a Nikon TE2000E PFS inverted microscope fitted with an incubation chamber maintained at 37° C. and supplied with 5% CO2. Cell division was tracked by manual inspection of movies, and mitotic duration was measured as the time between the first frame of chromosome condensation and the frame of chromosome segregation (anaphase), decondensation (mitotic exit without anaphase) or cell death (chromosomes shrinking to a small bright dot).
The imaging plate was mounted onto a motorized stage (Prior ProScan II) on a Nikon TE2000E PFS inverted microscope fitted with an incubation chamber maintained at 37° C. and supplied with 5% CO2. […] TIFF files of each image were exported from Elements and used to build stacks and Quicktime movies with Metamorph imaging software (Molecular Devices). For manual analysis, mitotic duration is counted as the time between the first frame of chromosome condensation and the frame of chromosome segregation (anaphase) or decondensation (mitotic exit in the presence of nocodazole) or cell death (chromosomes shrinking to a small bright dot).
HeLa H2B-GFP cells were plated in a 24-well plate in DMEM 10% FBS at 20% confluence one day prior to experiment and synchronized by double thymidine block as described above. […] Live cell imaging was set up as described above.
HeLa H2B-GFP cells were plated in a 24-well plate in DMEM+10% FBS at 20% confluence one day prior to the experiment and synchronized by double thymidine block as described above. The cells were released from the first thymidine block into 200 μl OptiMem without FBS. Transfection was performed immediately after the first thymidine release. […] The two mixtures were left at room temperature for 5 min before being mixed together and incubated for additional 20 min and then added to the cells to a final volume of 250 μl. 4 h after transfection, 250 μl of DMEM+20% FBS were added to cells.
HeLa H2B-GFP cells were plated in glass-bottom 24-well plates at 20% confluence one day prior to the experiment and synchronized by double thymidine block as described above. […] Cells were treated with 100 nM Hesperadin or DMSO 8 h after release from the second thymidine block and live cell imaging was set up as described above.
HeLa H2B-GFP cells were plated in a 24-well plate in DMEM+10% FBS at 20% confluence one day prior to experiment and synchronized by double thymidine block as synchronized above. […] Live cell imaging was set up as described above.
HeLa H2B-GFP cells were plated in a 24-well plate in DMEM+10% FBS at 20% confluence one day prior to experiment and synchronized by double thymidine block as described above. […] Untreated cells were used as the control. Live cell imaging was set up as described above. […] Alternatively, at 10 h after release from the second block, 10 μM MG132 with or without 25 μg/ml cycloheximide was added to the cells. […] Live cell imaging was set up as described above.
HeLa H2B-GFP cells were plated in a 24-well plate in DMEM+10% FBS at 20% confluence one day prior to experiment and synchronized by double thymidine block as described above. Mad2 siRNA transfection was performed as described above. At 10 h after release from the second block, 10 μM MG132 with or without 25 μg/ml cycloheximide was added to the cells. Live cell imaging was set up as described above. Manual analysis was focused only on cells that entered mitosis after MG132 addition.

hTERT-RPE1 H2B-GFP cells = experiment: Live cell imaging of mitotic duration in hTERT-RPE1 cells; format: cell-based
Method: FIG. 18A is a graph and table showing that proTAME induces a mitotic delay in hTERT-RPE1 H2B-GFP cells. Asynchronous hTERT-RPE1 H2B-GFP cells were treated with 0.06% DMSO, 6 μM proTAME or 12 μM proAAME. Cells were imaged at 12 min interval. Cumulative frequency curves of mitotic duration and cell fate distribution are shown.
The imaging plate was mounted onto a motorized stage (Prior ProScan II) on a Nikon TE2000E PFS inverted microscope fitted with an incubation chamber maintained at 37° C. and supplied with 5% CO2. A 20× Plan Apo 0.75 NA or 40× Plan Fluor 0.75 NA objective lens was used as indicated and images were collected with 2×2 binning DIC or GFP fluorescent images were taken every 12 min (unless otherwise specified) for 36 h with a Hamamatsu ORCA cooled CCD camera and Nikon Elements Software. TIFF files of each image were exported from Elements and used to build stacks and Quicktime movies with Metamorph imaging software (Molecular Devices). For manual analysis, mitotic duration is counted as the time between the first frame of chromosome condensation and the frame of chromosome segregation (anaphase) or decondensation (mitotic exit in the presence of nocodazole) or cell death (chromosomes shrinking to a small bright dot).

cyclin B1-GFP = experiment: Exogenous cyclin-GFP expression, live-cell imaging and quantitation (cyclin B1-GFP); format: cell-based, human; conditions: HeLa H2B-RFP; 20 μM proTAME or proAAME, 150 nM nocodazole
Method: (§1) HeLa H2B-RFP cells were transduced with cyclin B1-GFP or cyclin A2-GFP adenovirus for 40 h. Phenol Red-Free DMEM (Mediatech) supplemented with 10% FBS and 1:100 Penicillin-Streptomycin-Glutamine (Mediatech) was used as imaging medium. 20 μM proTAME, […] or 150 nM nocodazole was added 45 min prior to the start of imaging. Live cell imaging was set up as described above except that the cells were plated in an 8-well chambered coverglasses (NUNC Lab-tek 155411). Four positions per treatment group were imaged with DIC transmitted light, red fluorescence, and green fluorescence (Semrock GFP/HcRed “Pinkel” filter set) at 12 min intervals for 24 h. Stacks of red and green fluorescence were merged, saved as AVI video files and analyzed using ImageJ. For quantitation, the first GFP-positive cells that undergo mitosis in three separate movies were chosen, giving at least 30 cells quantitated for each treatment group. Mean intensity values for the green channel were collected for a cytoplasmic region of a cell upon mitotic entry, mitotic exit, or after 1 h of mitotic arrest. At the same time points, background mean green intensity was determined and individually subtracted from the cytoplasmic mean intensity. This background corrected mean intensity value was then used to determine the percentage of the original GFP signal remaining at the completion of division (for the control cells) or after 1 h of mitotic arrest (for the nocodazole and proTAME treated cells). The average values for all quantitated cells were plotted with the error bars representing standard error of the mean.

cyclin A2-GFP = experiment: Exogenous cyclin-GFP expression, live-cell imaging and quantitation (cyclin A2-GFP); format: cell-based, human; conditions: HeLa H2B-RFP; 20 μM proTAME or proAAME, 150 nM nocodazole
Method: as §1

APC = target: T1, APC (Homo sapiens, UniProt P30260); experiment: Cdc20/Cdh1 binding assay in HeLa cells; format: cell-based; conditions: 12 μM, HeLa released from nocodazole block
T1 construct: endogenous in cells; host or cells: HeLa cells (synchronised; in some experiments also Mad2/BubR1 siRNA and cyclin B1Δ107 adenovirus)
Method: HeLa cells in DMEM 10% FBS were plated in T25 flasks at 20% confluence one day prior to the experiment. They were then synchronized by a double thymidine block (18 h for the first block, 8 h release and another 18 h for the second block, thymidine concentration: 2 mM). For analysis of Cdh1 binding, cells were released into […] from the second thymidine block for 13 h and then washed into fresh medium. Six h later, cells were treated with 12 μM proTAME or […] or 0.06% DMSO for 2 h and then collected by trypin digrestion. For analysis of Cdc20 binding, cells were transfected with indicated siRNAs during the first release from thymidine block after two washes with DPBS (CellGro 21-030-CV) and addition of 6.3 ml OptiMEM. A volume (79 μl) of 20 μl Control siRNA#3 or a 1:1 mix of 20 μl MAD2 siRNA and BubR1 siRNA (Dharmacon D-004101-01, 5′-[…]-3′ (SEQ ID NO: 11)) was mixed in 1381 μl OptiMEM in a tube, 23.7 μl OligoFectamine were mixed with 94.1 μl OptiMEM in a second tube. After 5 min incubation at RT, the tubes contents were mixed and siRNA-reagent complexes were allowed to form for 20 min at RT. The transfection mixes were added to cells in OptiMEM and FBS was added to 10% after 5 h transfection. Cyclin B1-4107 expressing adenovirus (1:100) was added at the start of the second thymidine block and kept in the medium for all subsequent steps. […]

HeLa H2B-GFP cells [2] = experiment: Chromosome congression analysis; format: cell-based, human
Method: HeLa H2B-GFP cells were plated in 35 mm glass-bottom dishes (MatTek) in DMEM+10% FBS at 20% confluence one day prior to the experiment and synchronized by double thymidine block as described above. Drugs were added as follows to a final volume of 3 ml from 2× concentrated preparation in culture medium. DMSO (0.06%), proTAME (3 and 12 μM) or 10 nM Nocodazole were added 8 h after release from the second block, while MG132 (10 μM) was added at 10 h. H2B-GFP was imaged for 4 hrs every 3 min at 40× magnification as described above.

HeLa cells = experiment: Live imaging of HeLa cells expressing Histone 2B-GFP (Examples 1 and 2); format: cell-based, human; conditions: 3 μM MG132
Excerpt: Cumulative frequency curves of mitotic duration were plotted.
The same experiment in 1B was done with proAAME.
Synchronized HeLa cells were transfected with Mad2/control siRNA followed by drug treatments. Cumulative frequency curves of mitotic duration were plotted.
Asynchronous HeLa cells were transfected with Mad2 or control siRNA.
For comparison, the curves obtained in H2B-GFP fluorescent imaging experiment shown in FIG. 1B were plotted on the same graph.

HeLa H2B-GFP cells [3] = format: cell-based, human; conditions: double thymidine synchronized, drugs 10 hrs after release; proTAME 3 μM; MG132 concentration not given
Method: To determine whether proTAME treatment can enhance mitotic arrest and cell death induced by taxol or a proteasome inhibitor (MG132), HeLa H2B-GFP cells were co-treated with low doses of the microtubule poison Taxol or the proteasome inhibitor MG132 in combination with a low dose of proTAME.
Unsychronized HeLa H2B-GFP cells were treated with DMSO (control), taxol 10 nM or proTAME 3 μM or a combination of Taxol 10 nM and proTAME 3 μM (FIG. 26). The cells were imaged by FITC fluorescence microscopy to monitor the cell cycle and mitotic events.
To analyze interactions between proTAME and a proteasome inhibitor (FIG. 27), HeLa H2B-GFP cells were synchronized by double thymidine block (2 mM thymidine block for 18 hrs, release in medium for 8 hrs 2 mM thymidine block for 18 hrs), and treated with the drugs 10 hrs after release from the block as the cells just entered mitosis.

[4] = 12 μM, double thymidine synchronized, added 8 h after release
[5] = asynchronous hTERT-RPE1 H2B-GFP, proAAME 12 μM, proTAME 6 μM
[6] = proTAME 12 μM, MG132 10 μM, Nocodazole 10 nM

T1 sequence (P30260 whole entry): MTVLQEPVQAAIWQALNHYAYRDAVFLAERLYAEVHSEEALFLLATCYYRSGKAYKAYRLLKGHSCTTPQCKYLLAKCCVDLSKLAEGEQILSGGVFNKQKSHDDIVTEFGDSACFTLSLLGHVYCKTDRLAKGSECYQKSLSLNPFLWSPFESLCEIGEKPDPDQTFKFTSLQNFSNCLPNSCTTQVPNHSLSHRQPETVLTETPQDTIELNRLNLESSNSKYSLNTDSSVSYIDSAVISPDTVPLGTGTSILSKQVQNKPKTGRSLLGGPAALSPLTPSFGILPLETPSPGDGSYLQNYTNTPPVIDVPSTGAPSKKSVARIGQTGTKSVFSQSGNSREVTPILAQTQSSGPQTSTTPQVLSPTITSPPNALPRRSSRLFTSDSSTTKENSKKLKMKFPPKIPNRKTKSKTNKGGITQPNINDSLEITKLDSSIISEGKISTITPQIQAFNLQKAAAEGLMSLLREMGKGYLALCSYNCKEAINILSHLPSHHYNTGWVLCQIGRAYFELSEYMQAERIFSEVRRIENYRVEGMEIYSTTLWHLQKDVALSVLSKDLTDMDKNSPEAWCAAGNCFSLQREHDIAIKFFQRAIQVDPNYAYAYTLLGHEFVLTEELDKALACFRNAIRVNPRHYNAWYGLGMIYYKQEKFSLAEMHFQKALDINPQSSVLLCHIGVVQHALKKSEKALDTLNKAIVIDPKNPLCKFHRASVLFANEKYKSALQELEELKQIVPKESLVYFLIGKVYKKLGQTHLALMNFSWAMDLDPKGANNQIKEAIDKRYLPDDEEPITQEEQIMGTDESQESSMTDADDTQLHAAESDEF

COC(=O)[C@H](CC(C)N=C(NC(=O)OCOC(=O)Cc1ccccc1)NC(=O)OCOC(=O)Cc1ccccc1)NC(C)=O (stereo partly drawn) [proAAME, methyl(S)-2-(acetyl)amino-4-[[bis[[[[(phenylacetyl)oxy]methoxy]carbonyl]amino]methylene]amino]pentanoate]
Mitotic phenotype (HeLa H2B-GFP cells [1]; 12 μM): no effect
Average mitotic duration (HeLa H2B-GFP cells [1]; [4]): 100.5 min
Median mitotic duration (HeLa H2B-GFP cells [1]; [4]): 84 min
Average mitotic duration (hTERT-RPE1 H2B-GFP cells; [5]): 32.1 min
Median mitotic duration (hTERT-RPE1 H2B-GFP cells; [5]): 36 min
Median mitotic duration (hTERT-RPE1 H2B-GFP cells; proAAME-treated hTERT-RPE1 cells): 24 min
Average cyclin B1-GFP intensity remaining at 60 min vs onset of mitosis (cyclin B1-GFP): 0.15 fraction remaining
Median cyclin B1-GFP intensity remaining at 60 min vs onset of mitosis (cyclin B1-GFP): 0.15 fraction remaining
Average cyclin A2-GFP intensity remaining at 60 min vs onset of mitosis (cyclin A2-GFP): 0.08 fraction remaining
Median cyclin A2-GFP intensity remaining at 60 min vs onset of mitosis (cyclin A2-GFP): 0.06 fraction remaining
Cdh1 association with the APC in G1 cells (APC): did not

CC(C)C[C@@H](C=O)NC(=O)[C@H](CC(C)C)NC(=O)[C@H](CC(C)C)NC(=O)OCc1ccccc1 [MG132, reference compound] (Cbz-Leu-Leu-Leu-aldehyde)
Cells that exited mitosis during the 30 h experiment (HeLa H2B-GFP cells [1]; 3 μM MG132, control cells): 10%
Time a normal-appearing metaphase plate is maintained (HeLa H2B-GFP cells [1]; MG132 alone): over 5 h
Delay in chromosome congression (in words) (HeLa H2B-GFP cells [2]; 3 μM proTAME or 10 μM MG132): no delay in chromosome congression
Average chromosome congression time (prophase to full metaphase congression) (HeLa H2B-GFP cells [2]; [6]): 21.6 min
Median chromosome congression time (prophase to full metaphase congression) (HeLa H2B-GFP cells [2]; [6]): 21 min
Mad2-dependence of mitotic arrest (HeLa cells): partially dependent on Mad2
Median mitotic delay / arrest (HeLa H2B-GFP cells [3]): 276 min

Reference: US20130230458A1, “Cell Permeable Inhibitors of Anaphase Promoting Complex” (PRESIDENT AND FELLOWS OF HARVARD COLLEGE, priority 2010, published 2013)
